Key:
[1] = logp (HCOOH), chemicophysical data; settings: HCOOH
Amaranthus retroflexus = experiment: Pre-emergence herbicidal effect; assay type: in vivo; settings: Dosage 320 g/ha, visual scoring after 3 weeks vs untreated controls, 100% = plants have died
Source text: (§1) 1. Pre-Emergence Herbicidal Effect and Crop Plant Compatibility Seeds of monocotyledonous or dicotyledonous weed plants or crop plants are planted in wood-fiber pots in sandy loam and covered with earth. The compounds according to the invention, formulated in the form of wettable powders (WP) or as emulsion concentrates (EC), are then applied as aqueous suspension or emulsion at a water application rate of 600 to 800 l/ha (converted) with the addition of 0.2% of wetting agent to the surface of the covering earth. The dosage of the compounds according to the invention is given in grams per hectare. Following the treatment, the pots are placed in a greenhouse and kept under good growth conditions for the test plants. The visual scoring of the damage on the test plants is carried out after an experiment time of 3 weeks in comparison with untreated controls (herbicidal effect in percent (%): 100% effect=plants have died, 0% effect=as control plants). The following abbreviations are used in the tables below: [table]

Echinochloa crus-galli = experiment: Pre-emergence herbicidal effect; assay type: in vivo; settings: Dosage 320 g/ha, visual scoring after 3 weeks vs untreated controls, 100% = plants have died
Source text: as §1

Matricaria inodora = experiment: Pre-emergence herbicidal effect; assay type: in vivo; settings: Dosage 320 g/ha, visual scoring after 3 weeks vs untreated controls, 100% = plants have died
Source text: as §1

Stellaria media = experiment: Pre-emergence herbicidal effect; assay type: in vivo; settings: Dosage 320 g/ha, visual scoring after 3 weeks vs untreated controls, 100% = plants have died
Source text: as §1

Veronica persica = experiment: Pre-emergence herbicidal effect; assay type: in vivo; settings: Dosage 320 g/ha, visual scoring after 3 weeks vs untreated controls, 100% = plants have died
Source text: as §1

Viola tricolor = experiment: Pre-emergence herbicidal effect; assay type: in vivo; settings: Dosage 320 g/ha, visual scoring after 3 weeks vs untreated controls, 100% = plants have died
Source text: as §1

## Cc1ccccc1-c1nc(N[C@@H]2CCCc3ccccc32)nc(N)c1C#N [Example 1.78]
[1]
  logp (HCOOH): solid; logp (HCOOH): 3.41; 1H-NMR (CDCl3, 400 MHZ, δ in ppm): 1.85-2.05 (br, 4H,

## Cc1ccc2c(c1)[C@H](Nc1nc(N)cc(-c3ccccc3)n1)[C@@H](C)C2 [Example 1.83]
[1]
  logp (HCOOH): wax-like; logp (HCOOH): 1.71; 1H-NMR (CDCl3, 400 MHZ, δ in ppm): 1.25 (m, 3H, CH3);

## CC1(c2nc(N[C@@H]3CCCc4ccccc43)nc(N)c2C#N)CC1 [Example 1.84]
[1]
  logp (HCOOH): wax-like; logp (HCOOH): 2.63; 1H-NMR (CDCl3, 400 MHZ, δ in ppm): 0.75 (m, 2H, CH2);

## Cc1ccc(C2(c3nc(N[C@@H]4CCCc5ccccc54)nc(N)c3C#N)CC2)cc1 [Example 1.85]
[1]
  logp (HCOOH): wax-like; logp (HCOOH): 4.02; 1H-NMR (CDCl3, 400 MHZ, δ in ppm): 1.70-2.10 (br,

## N#Cc1c(N)nc(N[C@@H]2CCCc3ccccc32)nc1C1(c2ccc(Cl)cc2Cl)CC1 [Example 1.86]
[1]
  logp (HCOOH): wax-like; logp (HCOOH): 5.15; 1H-NMR (CDCl3, 400 MHZ, δ in ppm): 1.25 (br, 2H,

## Cc1ccc2c(c1)[C@H](Nc1nc(N)cc(N(C)C)n1)[C@@H](C)C2 [Example 1.91]
[1]
  logp (HCOOH): wax-like; logp (HCOOH): 1.66; 1H-NMR (CDCl3, 400 MHZ, δ in ppm): 1.25 (d, 3H, CH3);

## Cc1ccc2c(c1)[C@H](Nc1nc(N)c(C#N)c(C3(C)CC3)n1)[C@@H](C)C2 [Example 1.93]
[1]
  logp (HCOOH): wax-like; logp (HCOOH): 3.31; 1H-NMR (CDCl3, 400 MHZ, δ in ppm): 0.75 (m, 2H, CH2);

## Cc1ccc2c(c1)[C@H](Nc1ncc(C(F)(F)F)c(N)n1)[C@@H](C)C2 [Example 1.107]
[1]
  logp (HCOOH): wax-like, logp (HCOOH): 2.11; 1H-NMR (CDCl3, 400 MHZ, δ in ppm): 1.25 (d, 3H, CH3);

## C#Cc1cnc(N[C@@H]2CCCc3ccccc32)nc1N [Example 1.116]
[1]
  logp (HCOOH): wax-like; logp (HCOOH): 1.09; 1H-NMR (CDCl3, 400 MHZ, δ in ppm): 1.80 (m, 3H, 3H

## COC(=O)c1cc(N)nc(N[C@H]2c3cc(C)ccc3C[C@@H]2C)n1 [Example 1.118]
[1]
  logp (HCOOH): wax-like; logp (HCOOH): 2.96; 1H-NMR (CDCl3, 400 MHZ, δ in ppm): 1.30 (d, 3H, CH3);

## Cc1nc(N[C@@H]2CCc3ccccc32)nc(N)c1[N+](=O)[O-] [Example 1.123]
Amaranthus retroflexus
  Pre-emergence herbicidal effect AMARE: 100%
Echinochloa crus-galli
  Pre-emergence herbicidal effect ECHCG: 80%
Matricaria inodora
  Pre-emergence herbicidal effect MATIN: 100%
Stellaria media
  Pre-emergence herbicidal effect STEME: 100%
Veronica persica
  Pre-emergence herbicidal effect VERPE: 100%
Viola tricolor
  Pre-emergence herbicidal effect VIOTR: 100%

## CC(=O)c1cnc(N[C@H]2c3cc(C)ccc3C[C@@H]2C)nc1N [Example 1.184]
[1]
  logp (HCOOH): wax-like; logp (HCOOH): 1.58; 1H-NMR (CDCl3, 400 MHZ, δ in ppm): 1.30 (d, 3H, CH3);

## Cc1ccc2c(c1)[C@H](Nc1nc(N)cc(C(F)(F)F)n1)[C@@H](C)C2 [Example 1.214]
[1]
  logp (HCOOH): wax-like; logp (HCOOH): 1.59; 1H-NMR (CDCl3, 400 MHZ, δ in ppm): 1.30 (d, 3H, CH3);

## COc1cccc(C#Cc2cnc(N[C@H]3c4cc(C)ccc4C[C@@H]3C)nc2N)c1 [Example 1.221]
[1]
  logp (HCOOH): wax-like; logp (HCOOH): 1.98; 1H-NMR (CDCl3, 400 MHZ, δ in ppm): 1.25 (d, 3H, CH3);

## Cc1ccc2c(c1)[C@H](Nc1ncc(C#CCO)c(N)n1)[C@@H](C)C2 [Example 1.222]
[1]
  logp (HCOOH): wax-like; logp (HCOOH): 1.04; 1H-NMR (CDCl3, 400 MHZ, δ in ppm): 1.25 (d, 3H, CH3);

## Nc1nc(N[C@@H]2CCc3ccccc32)ncc1C(F)(F)F [Example 1.237]
[1]
  logp (HCOOH): wax-like; logp (HCOOH): 1.50; 1H-NMR (CDCl3, 400 MHZ, δ in ppm): 1.80 (m, 1H, 1H

## Cc1ccc2c(c1)[C@H](Nc1ncc(C#Cc3cccc(C(F)(F)F)c3)c(N)n1)[C@@H](C)C2 [Example 1.247]
[1]
  logp (HCOOH): wax-like; logp (HCOOH): 2.60; 1H-NMR (CDCl3, 400 MHZ, δ in ppm): 1.25 (d, 3H, CH3);

## Cc1ccc2c(c1)[C@H](Nc1ncc(C#Cc3ccc(F)c(Cl)c3)c(N)n1)[C@@H](C)C2 [Example 1.248]
[1]
  logp (HCOOH): wax-like; logp (HCOOH): 2.71; 1H-NMR (CDCl3, 400 MHZ, δ in ppm): 1.25 (d, 3H, CH3);

## Cc1ccc2c(c1)[C@H](Nc1ncc(C#CCC(C)C)c(N)n1)[C@@H](C)C2 [Example 1.249]
[1]
  logp (HCOOH): wax-like; logp (HCOOH): 1.73; 1H-NMR (CDCl3, 400 MHZ, δ in ppm): 1.00 (d, 6H,

## CCC(O)C#Cc1cnc(N[C@H]2c3cc(C)ccc3C[C@@H]2C)nc1N (stereo partly drawn) [Example 1.251]
[1]
  logp (HCOOH): wax-like; logp (HCOOH): 1.48; 1H-NMR (CDCl3, 400 MHZ, δ in ppm): 1.00 (t, 3H, CH3);

## CC(=O)OCC#Cc1cnc(N[C@H]2c3cc(C)ccc3C[C@@H]2C)nc1N [Example 1.252]
[1]
  logp (HCOOH): wax-like; logp (HCOOH): 1.59; 1H-NMR (CDCl3, 400 MHZ, δ in ppm): 1.25 (d, 3H, CH3);

## Cc1nc(N[C@@H]2CCCc3ccccc32)nc(N)c1C(=O)OC1CCCCC1 [Example 1.255]
[1]
  logp (HCOOH): wax-like; logp (HCOOH): 2.03; 1H-NMR (CDCl3, 400 MHZ, δ in ppm): 2.10-2.65 (m,
